Test results: article PMC8596534, “Pyridine substituted BODIPYs: synthesis, characterization and cholinesterease, α-glucosidase inhibitory, DNA hydrolytic cleavage effects” (Turkish Journal of Chemistry, 2021)

Legend:
[1] = target: T1, butyrylcholinesterase from equine serum (BuChE) (Equus caballus, UniProt P81908); experiment: BuChE inhibition; assay type: biochemical
T1 construct: butyrylcholinesterase from equine serum (BuChE); from tissue; host or cells: equine serum
Text: (§1) The materials, equipment, AChE, BuChE, α-glucosidase inhibitory, and DNA hydrolytic cleavage actions are given as supplementary information.
(§2) The results were expressed as IC50 and selective index (SI=BuChE/AChE) values.

[2] = target: α-glucosidase from Saccharomyces cerevisiae; experiment: α-Glucosidase inhibition; assay type: biochemical
Text: as §1
The inhibitory properties of the compounds on α-glucosidase were investigated according to our previously reported methods. The results were expressed as IC50 values.

[3] = target: acetylcholinesterase from Electrophorus electricus (AChE) (Electrophorus electricus, UniProt O42275); experiment: biochemical; conditions: for SI (BuChE/AChE): selective index = IC50 BuChE/AChE
Chain of acetylcholinesterase from Electrophorus electricus (AChE) (O42275 24-633): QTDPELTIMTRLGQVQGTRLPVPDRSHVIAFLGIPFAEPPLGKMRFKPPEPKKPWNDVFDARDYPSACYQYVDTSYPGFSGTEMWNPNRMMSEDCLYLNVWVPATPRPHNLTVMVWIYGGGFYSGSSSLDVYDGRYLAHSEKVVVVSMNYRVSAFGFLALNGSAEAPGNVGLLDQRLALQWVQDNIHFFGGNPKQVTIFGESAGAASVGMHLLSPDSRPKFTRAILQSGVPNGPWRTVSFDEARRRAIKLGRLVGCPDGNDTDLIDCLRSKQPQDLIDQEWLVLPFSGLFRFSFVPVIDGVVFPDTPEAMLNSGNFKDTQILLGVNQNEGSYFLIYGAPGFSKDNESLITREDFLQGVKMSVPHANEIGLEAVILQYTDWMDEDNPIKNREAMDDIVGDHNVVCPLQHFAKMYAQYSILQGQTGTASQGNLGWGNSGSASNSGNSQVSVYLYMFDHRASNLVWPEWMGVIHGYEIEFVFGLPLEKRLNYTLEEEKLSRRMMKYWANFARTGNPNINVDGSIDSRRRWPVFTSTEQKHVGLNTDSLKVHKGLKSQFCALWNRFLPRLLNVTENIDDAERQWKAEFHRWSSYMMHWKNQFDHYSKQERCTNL
Text: as §1, §2

AChE [4] = target: T2, AChE (Electrophorus electricus, UniProt O42275); experiment: Compound-protein binding by UV-Vis spectroscopy; conditions: AChE 10 µM; BDPY-4 5, 10, 15 and 20 µM
T2 sequence (O42275 24-633): as above
Description: To determine the structural change of AChE (10 µM) induced by BDPY-4, we measured the UV-Vis spectroscopy by adding the compound (5, 10, 15, and 20 µM) into AChE solution (10 µM). AChE has an absorption peak at 282 nm due to aromatic amino acids.

AChE [5] = target: T2, AChE; experiment: AChE inhibition mechanism (Lineweaver–Burk and Dixon plots); assay type: biochemical; conditions: for Vmax: substrate acetylthiocholine iodide
Text: Acetylthiocholine iodide was used as a substrate for AChE inhibition.

T1 sequence (P81908 whole entry): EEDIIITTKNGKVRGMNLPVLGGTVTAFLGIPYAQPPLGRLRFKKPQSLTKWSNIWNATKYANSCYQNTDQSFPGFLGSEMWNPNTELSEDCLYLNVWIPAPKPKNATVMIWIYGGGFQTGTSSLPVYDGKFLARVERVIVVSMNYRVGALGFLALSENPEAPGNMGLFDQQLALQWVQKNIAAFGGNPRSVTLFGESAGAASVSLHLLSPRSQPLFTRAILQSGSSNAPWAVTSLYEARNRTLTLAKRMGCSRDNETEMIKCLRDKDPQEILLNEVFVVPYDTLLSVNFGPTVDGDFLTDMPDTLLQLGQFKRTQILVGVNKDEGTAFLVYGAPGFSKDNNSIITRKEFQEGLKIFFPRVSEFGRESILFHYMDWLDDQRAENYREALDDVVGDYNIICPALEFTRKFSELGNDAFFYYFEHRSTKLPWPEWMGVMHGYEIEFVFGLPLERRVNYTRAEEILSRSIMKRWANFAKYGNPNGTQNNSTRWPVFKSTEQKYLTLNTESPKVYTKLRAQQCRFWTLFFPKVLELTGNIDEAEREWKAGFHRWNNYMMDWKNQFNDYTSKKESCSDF

SMILES	IC50 [1] [µM]	IC50 [2] [µM]	IC50 [3] [µM]	SI (BuChE/AChE) [3]	Change of AChE absorbance (AChE [4])	Shift of AChE absorption peak (AChE [4])	Vmax (AChE [5]; 50 µM BDPY-4) [µM/min]	Vmax (AChE [5]; 100 µM BDPY-4) [µM/min]	Ki (AChE [5]; Dixon plot, read-out: Ki (inhibition constant)) [µM]	Inhibitory type (AChE [5]; Lineweaver–Burk plot)
CC1=CC(C)=[N+]2C1=C(c1ccc(OCCCc3ccncc3)cc1)c1c(C)cc(C)n1[B-]2(F)F [BDPY-2]	185 ± 5.49	219 ± 8.71	72.5 ± 2.95	2.55						
CC1=CC(/C=C/c2ccc(OCCCc3ccncc3)cc2)=[N+]2C1=C(c1ccc(OCCCc3ccncc3)cc1)c1c(C)cc(/C=C/c3ccc(OCCCc4ccncc4)cc3)n1[B-]2(F)F [BDPY-4]	150 ± 6.09	95 ± 4.77	54.8 ± 4.51	2.74	hyperchromism	shifted from 282 nm to 285 nm	196.08	126.58	57.2 ± 0.2	noncompetitive inhibitor
CC1=CC(/C=C/c2ccc(OCCCc3cccnc3)cc2)=[N+]2C1=C(c1ccc(OCCCc3ccncc3)cc1)c1c(C)cc(/C=C/c3ccc(OCCCc4cccnc4)cc3)n1[B-]2(F)F [BDPY-5]	170 ± 4.33	106 ± 5.03	64.9 ± 3.89	2.62						
